# Results as given in US11266609B2, “Bacitracin and/or daptomycin combined with cannabidiol for treatment of bacterial infections” (priority 2017, dated 2022).
# Where two headings read alike, the source gives them in different places. Positions of bridges follow the written chain, without caps; N, C: chain ends. Non-standard residues stand in square brackets, D forms with d. Residues, ends and D or L forms follow the SMILES beside them. *: point of attachment. Ileψ(thiazoline)Cys = CC[C@H](C)[C@H](N)C1=N[C@H](C(=O)*)CS1; dOrn = NCCC[C@@H](N)C(=O)O
# Key:
# [1] = test system: L. monocytogenes EGD; assay: microbe, parasite or virus in culture; format: cell-based, Listeria monocytogenes
# Procedure: (§1) Additional bacteria Enterococcus faecalis (13-327129), Enterococcus faecalis (16-7418), Methicillin-resistant Staphylococcus epidermidis (933010 3F-16 b4), Listeria monocytogenes EGD, Pseudomonas aeruginosa (PA01), Salmonella typhimurium (14028), Klepsiella pneumoniae (CAS55), Vibrio cholerae (A1522), and Escherichia coli (UTI89) were either grown in BHI or Lysogeny broth (LB) media.
# (§2) An ON culture was made by inoculating a bacterial colony in either 5 mL of MH or BHI and incubating at 37° C. with agitation. The antibiotic of interest was added to a row of a sterile 96-well plate (VWR) and a serial dilution was made down the rows containing 50 μL of MH or BHI media in each well, resulting in 2-fold dilution for each row. The ON culture was diluted to OD625 at approximately 1.0 followed by a 1:100 dilution to approximately OD625=0.01 of which 50 μL was added to each well to a final volume of 100 μL. The 96-well plate was incubated at 37° C. with shaking at 225 rpm for approximately 18-24 hours. Presence and absence of growth were determined by visual appearance. FIC index was calculated as follows (Alam M T et al. Antibacterial activity of different organic extracts of Achyranthes aspera and Cassia alata. J Sci Res. 2009).
# (§3) To study the bacterial spectrum of the combination, CBD and bacitracin growth measurements of other Gram-positive bacteria tests on Enterococcus faecalis, an MRSE strain and a strain of Listeria monocytogenes were performed as described in Example 1.
# (§4) The MIC for bacitracin and CBD and the respective FIC values are visualized in table 2 for the Gram-positive bacteria and are calculated based on two biological replicates.
# [2] = test system: MRSE (933010 3F-16 b4); assay: microbe, parasite or virus in culture; format: cell-based, Methicillin-resistant Staphylococcus epidermidis
# Procedure: as §1, §2, §3, §4
# [3] = test system: MRSA USA300 FPR3757; assay: microbe, parasite or virus in culture; format: cell-based, Staphylococcus aureus; settings: for FIC Index: combination of cannabidiol with the respective antibiotic, synergy <= 0.5, no interaction 0.5-4.0, antagonism > 4
# Procedure: (§5) The resistant bacterium MRSA USA300 FPR3757 (USA300) was the main used bacterium throughout this study. MRSA was grown in Brain Heart Infusion (BHI) or Müeller Hinton (MH) media on plate or in liquid cultures with agitation at 37° C.
# as §2, with “appearance.” for “appearance. FIC index was calculated as follows (Alam M T et al. Antibacterial activity of different organic extracts of Achyranthes aspera and Cassia alata. J Sci Res. 2009).”
# B) The other screen was based on fractional inhibitory concentration (FIC) index.
# [4] = test system: Escherichia coli (UTI89); assay: MIC, Gram-negative bacteria; format: cell-based; settings: above tested concentrations
# Procedure: as §1, §2
# (§6) To further assess the spectrum of use for the combination of CBD and bacitracin, growth of Gram-negative bacteria upon treatment was measured as well as described in Example 1.
# (§7) The Gram-negative bacteria tested were strains of Pseudomonas aeruginosa, Salmonella typhimurium, Klepsiella pneumoniae, Vibrio cholera, and Escherichia coli. MIC for CBD and bacitracin in the Gram-negative bacteria are visualized in table 3, and were both above tested concentrations.
# [5] = test system: Salmonella typhimurium (14028); assay: MIC, Gram-negative bacteria; format: cell-based; settings: Salmonella enterica, above tested concentrations
# Procedure: as §1, §2, §6, §7
# [6] = test system: Klepsiella pneumoniae (CAS55); assay: MIC, Gram-negative bacteria; format: cell-based; settings: above tested concentrations
# Procedure: as §1, §2, §6, §7
# [7] = test system: Pseudomonas aeruginosa (PA01); assay: MIC, Gram-negative bacteria; format: cell-based; settings: above tested concentrations
# Procedure: as §1, §2, §6, §7
# [8] = test system: Vibrio cholerae (A1522); assay: microbe, parasite or virus in culture; format: cell-based
# Procedure: as §1
# as §2, with “The 96-well plate was incubated at 37° C. with shaking at 225 rpm for approximately 18-24 hours.” left out
# To further assess the spectrum of use for the combination of CBD and bacitracin, growth of Gram-negative bacteria upon treatment was measured as well as described in Example 1. […]
# [9] = test system: E. faecalis (13-327129); assay: microbe, parasite or virus in culture; format: cell-based, Enterococcus faecalis
# Procedure: as §1, §2, §3, §4
# [10] = test system: E. faecalis (16-7418); assay: microbe, parasite or virus in culture; format: cell-based, Enterococcus faecalis
# Procedure: as §1, §2, §3, §4
# [11] = target: T1, bacterial undecaprenyl pyrophosphate (UPP) synthase (Staphylococcus aureus, UniProt P60477); settings: The Journal of Antibiotics 69, 798-805 (2016); cited from earlier work
# T1 sequence (P60477 1-256): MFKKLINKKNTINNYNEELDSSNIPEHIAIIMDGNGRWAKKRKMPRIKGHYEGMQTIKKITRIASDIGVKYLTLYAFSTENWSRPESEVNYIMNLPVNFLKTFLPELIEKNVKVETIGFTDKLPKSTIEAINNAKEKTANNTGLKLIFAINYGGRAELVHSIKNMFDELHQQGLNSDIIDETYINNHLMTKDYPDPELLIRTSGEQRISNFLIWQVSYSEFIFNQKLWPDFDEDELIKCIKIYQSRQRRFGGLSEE
# [12] = test system: Gram-positive bacteria including methicillin-resistant Staphylococcus aureus (MRSA); settings: particularly against Gram-positive bacteria including MRSA; cited from earlier work
# [13] = test system: MRSA USA300; assay: Micro dilution growth experiments using oCelloScope, CBD combined with antibiotics (FIG. 1); format: cell-based, Staphylococcus aureus; settings: for synergistic potential in growth curves: combination with CBD 1-2 μg/mL, bacitracin 16, daptomycin 4, tetracycline 16, fosfomycin 16, dicloxacillin 0.0625, chlorhexidine 0.25, vancomycin 0.5 μg/mL (FIG. 1)
# Procedure: BCA: Background corrected absorption. ? Growth control, ? CBD, -▴- Antibiotic, ? Combination.
# as §5
# An ON culture was made by inoculating a bacterial colony in either 5 mL of MH or BHI at incubated at 37° C. with agitation. 25 μL of specific concentrations of the antibiotic and cannabinoid to be tested was added to the desired wells of a sterile 96-well plate (Thermo Scientific). 25 μL of MH or BHI media was added to the wells only containing one of the two compounds tested. The bacterial ON culture was diluted to a final OD600 nm of 0.005 and 50 μL was dispensed into each well to a final volume of 100 μL. To decrease evaporation, 2 mL of pre-heated water was added to the corners of the 96-well plate containing cavities. The plate was placed in the oCelloScope inside an incubator at 37° C. Illumination level and focus was adjusted for each well and the growth was measured for approximately 25 hours. Measurements were performed every half an hour for the first half of the time and every hour for the last half using the UniExplorer software. Data retrieved was given in Background corrected absorption (BCA), formerly known as pixel histogram summation (PHS), an algorithm enabling determination of bacterial growth kinetics resulting from images taken with the oCelloScope camera.
# A) A screen was performed using the Philips oCelloScope enabling measurements of bacterial growth in presence or absence of either cannabidiol alone or in combination with an antibiotic or antimicrobial, through a 3D scanning system in 96-well plates.
# [14] = MRSA USA300 FPR3757, Table 2, two biological replicates
# [15] = USA300, Table 4, unit not given
compound,measurement,setting,value
"C=C(C)[C@@H]1CCC(C)=C[C@H]1c1c(O)cc(CCCCC)cc1O [Cannabidiol (CBD), Cannabidiol]",MIC,"[1]; Listeria monocytogenes, L. monocytogenes EGD, read-out: MIC",4 µg/mL
same,MIC,"[2]; Staphylococcus epidermidis, MRSE",4 µg/mL
same,MIC,[3]; [14],4 µg/mL
same,MIC,[3]; Staphylococcus aureus,4 µg/mL
same,MIC,[4],> 128 µg/mL
same,MIC,[5],> 128 µg/mL
same,MIC,[6],> 128 µg/mL
same,MIC,[7],> 128 µg/mL
same,MIC,[8]; Vibrio cholerae,> 128 µg/mL
same,MIC,"[9]; Enterococcus faecalis, E. faecalis (13-327129), read-out: MIC",16 µg/mL
same,MIC,"[10]; Enterococcus faecalis, E. faecalis (16-7418), read-out: MIC",16 µg/mL
COc1cc(O)c2c(O)c3c(c4c2c1C1(C4)C(C)=CCCC1(C)C)C(O)C1(O)CC(=O)C(C(C)=O)=C(O)C1(O)C3=O (centres unmarked) [Spirohexaline],IC50,[11],9 µM
same,antimicrobial activity,[12],showed antimicrobial activity
CCCCCCCCCC(=O)N[C@@H](Cc1c[nH]c2ccccc12)C(=O)N[C@H](CC(N)=O)C(=O)N[C@@H](CC(=O)O)C(=O)N[C@@H]1C(=O)NCC(=O)N[C@@H](CCCN)C(=O)N[C@@H](CC(=O)O)C(=O)N[C@H](C)C(=O)N[C@@H](CC(=O)O)C(=O)NCC(=O)N[C@H](CO)C(=O)N[C@@H]([C@H](C)CC(=O)O)C(=O)N[C@@H](CC(=O)c2ccccc2N)C(=O)O[C@@H]1C [Daptomycin],MIC,[3]; USA300,16 µg/mL
same,synergistic potential in growth curves,[13],to some degree
"CCCCCc1cc(O)c(C/C=C(\C)CCC=C(C)C)c(O)c1 [Cannabigerol (CBG), Cannabigerol]",FIC index (with bacitracin),[3]; USA300,0.88
same,FIC index (with daptomycin),[3]; USA300,1.0
same,MIC,[3]; [15],4
Cc1onc(-c2c(Cl)cccc2Cl)c1C(=O)N[C@@H]1C(=O)N2[C@@H]1SC(C)(C)[C@@H]2C(=O)O [Dicloxacillin],MIC,[3]; Staphylococcus aureus,0.25 µg/mL
same,FIC Index,[3]; WT USA300,2
same,synergistic potential in growth curves,[13],no synergistic potential
"CCCCCc1cc(O)c2c(c1)OC(C)(CCC=C(C)C)C=C2 (centres unmarked) [Cannabichromene (CBC), Cannabichromene]",FIC index (with bacitracin),[3]; USA300,0.63
same,FIC index (with daptomycin),[3]; USA300,0.63
same,MIC,[3]; [15],4
CN[C@H](CC(C)C)C(=O)N[C@H]1C(=O)N[C@@H](CC(N)=O)C(=O)N[C@H]2C(=O)N[C@H]3C(=O)N[C@H](C(=O)N[C@H](C(=O)O)c4cc(O)cc(O)c4-c4cc3ccc4O)[C@H](O)c3ccc(c(Cl)c3)Oc3cc2cc(c3O[C@@H]2O[C@H](CO)[C@@H](O)[C@H](O)[C@H]2O[C@H]2C[C@](C)(N)[C@H](O)[C@H](C)O2)Oc2ccc(cc2Cl)[C@H]1O [Vancomycin],MIC,[3]; Staphylococcus aureus,2 µg/mL
same,FIC Index,[3]; WT USA300,2
same,synergistic potential in growth curves,[13],no synergistic potential
Viridicatumtoxin,IC50,[11],4 µM
same,antimicrobial activity,[12],showed antimicrobial activity
[H]/N=C(\N/C(=N/[H])NCCCCCCNC(=N)NC(=N)Nc1ccc(Cl)cc1)Nc1ccc(Cl)cc1 [Chlorhexidine],MIC,[3]; Staphylococcus aureus,1 to 2 µg/mL
same,FIC Index,[3]; WT USA300,1
same,synergistic potential in growth curves,[13],no synergistic potential
CC[C@H](C)[C@H](N)C1=N[C@H](C(=O)N[C@@H](CC(C)C)C(=O)N[C@H](CCC(=O)O)C(=O)N[C@H](C(=O)N[C@H]2CCCCNC(=O)[C@H](CC(N)=O)NC(=O)[C@@H](CC(=O)O)NC(=O)[C@H](Cc3cnc[nH]3)NC(=O)[C@@H](Cc3ccccc3)NC(=O)[C@H]([C@@H](C)CC)NC(=O)[C@@H](CCCN)NC2=O)[C@@H](C)CC)CS1 [Bacitracin] ({Ileψ(thiazoline)Cys}-L[dE]IK[dOrn]I[dF]H[dD]N; lactam 4-C),MIC,[1]; EGD,512 µg/mL
same,Fold decreased bacitracin,"[1]; L. monocytogenes EGD, bacitracin MIC combined with CBD compared to bacitracin alone",8-16 fold
same,MIC,[2]; MRSE (933010 3F-16 b4),32 µg/mL
same,Fold decreased bacitracin,"[2]; MRSE (933010 3F-16 b4), bacitracin MIC combined with CBD compared to bacitracin alone",64 fold
same,MIC,[3]; [14],64 µg/mL
same,Fold decreased bacitracin,"[3]; MRSA USA300 FPR3757, bacitracin MIC combined with CBD compared to bacitracin alone",16-32 fold
same,MIC,[3]; WT USA300,64 µg/mL
same,FIC Index,[3]; WT USA300,0.30
same,MIC,"[8]; Vibrio cholerae (A1522), above tested concentrations",>1024 µg/mL
same,MIC,[9]; 13-327129,128 µg/mL
same,Fold decreased bacitracin,"[9]; E. faecalis (13-327129), bacitracin MIC combined with CBD compared to bacitracin alone",16 fold
same,MIC,[10]; 16-7418,128 µg/mL
same,synergistic potential in growth curves,[13],synergistic potential
C[C@@H]1O[C@@H]1P(=O)(O)O [Fosfomycin],MIC,[3]; Staphylococcus aureus,32 µg/mL
same,"synergistic/antagonistic potential in growth curves, lower concentration","[13]; combination with CBD 1 μg/mL, fosfomycin 8 μg/mL (FIG. 1E)",antagonistic potential
same,synergistic potential in growth curves,[13],to some degree
CO/N=C(\C(=O)N[C@@H]1C(=O)N2C(C(=O)O)=C(CSc3nc(=O)c(=O)[nH]n3C)CS[C@H]12)c1csc(N)n1 [Ceftriaxone],MIC,[3]; Staphylococcus aureus,32 µg/mL
same,FIC Index,[3]; WT USA300,1.5
